Test results as given in PubChem BioAssay AID2060498 (Molecular Pharmacology Branch, DTP, NCI, 2025).
Where “and” joins values, the source holds several entries; their conditions need not be identical. Identical values can stand only once.

Test system: 171881-019-R-J1-PDC tumor spheroids, viability
Assay: Anticancer human tumor 171881-019-R-J1-PDC patient-derived invasive breast carcinoma cell line growth inhibition [GQUAD]
Conditions: spheroids with HUVEC and MSC; for viability, T/C: stronger effect = lower value
Excerpt: DNA G-quadruplex Stabilizer Agents in Combinations in Complex Spheroids
A high-throughput screen of multi-cell type tumor spheroids was designed to identify active combinations of DNA G-quadruplex stabilizer agents and targeted small molecules. Complex spheroids include a stromal component modeled by human endothelial cells (HUVEC) and fibroblasts modeled by human mesenchymal stem cells (MSCs). The concentration ranges selected for each drug and investigational agent were based upon clinically achievable concentrations if the clinical Cmax of the agent was known.
Compounds. The drugs and investigational agents: pidnarulex (CX-5461; NSC782164), APTO-253 (NSC789042), BRACO-19 (NSC847499), peposertib (NSC802822), ceralasertib (NSC780249), elimusertib (NSC800525), camonsertib (NSC841442), AZD-1390 (NSC803789), olaparib (NSC753686), talazoparib (NSC767125), ART-558 (NSC835418), sotorasib (NSC818433), MRTX-1133 (NSC836407), SN-38 (NSC673596), topotecan (NSC609699), etoposide (NSC141540), doxorubicin (NSC123127), gemcitabine (NSC613327), 5-fluorouracil (NSC19893), paclitaxel (NSC125973), vemurafenib (NSC761431), panobinostat (NSC761190), R-306465 (JNJ-16241199; NSC773264), adavosertib (NSC754352), TP-3654 (NSC805149), carboplatin (NSC241240), KSQ-4279 (NSC840948), and staurosporine (NSC755774) were obtained from the National Cancer Institute (NCI) Developmental Therapeutics Program Chemical Repository (34). The FDA-approved anticancer drug set is available from the NCI Developmental Therapeutics Program. […] The stock solutions were prepared in dimethyl sulfoxide (DMSO, Sigma-Aldrich, St. Louis, MO, cat. D2650) at 800-fold the tested concentration and stored at -70 degrees C prior to their use. All drugs and investigational agents were tested over a range starting from a high concentration at or near the clinical Cmax and decreasing in half-log increments. If the clinical Cmax for an agent had not been determined, the highest concentration tested was 10 microM.
2.3 Cell Culture. All cells were maintained in an incubator at 37 degrees C and 5% CO2 with 95% humidity. The PDC lines were cultured according to standard operating procedures established by the NCI PDMR. All PDCs were thawed and cultured in Matrigel-coated flasks prepared with a working solution of 1X Ham's F-12 nutrient mix, without supplementation (Invitrogen, cat. 11765054), 100 U/mL penicillin-streptomycin (Invitrogen, cat. 15140122), and 2.5% Matrigel (Corning Inc., cat. 354248) for the first three passages. The 857933-349-R-J2-PDC line was cultured in 6C/Colon 1B media, which includes advanced DMEM/F-12 (Thermo Fisher Scientific, cat. 12634028), 10 mM HEPES (Thermo Fisher Scientific, cat. 15630080), 1X GlutaMAX supplement (Thermo Fisher Scientific, cat. 35050061), 0.1 mg/mL primocin (InvivoGen, cat. ant-pm-2), 10% defined fetal bovine serum, heat inactivated (HyClone Laboratories Inc., cat. SH30070.03HI), 50% L-WRN conditioned media (ATCC, cat. CRL-3276), 1.25 mM N-Acetyl-L-cysteine (Sigma-Aldrich, cat. A9165), 10 mM nicotinamide (Sigma-Aldrich, cat. N0636), 1X B-27 supplement (Thermo Fisher Scientific, cat. 17504044), 1X N-2 supplement (Thermo Fisher Scientific, cat. 17502048), 10 microM Y-27632 dihydrochloride (Tocris Bioscience, cat. 1254), and 50 ng/mL human EGF recombinant protein (Thermo Fisher Scientific, cat. PHG0311). The 485176-168-R4-J1-PDC line was cultured in Panc media, which includes all 6C/Colon 1B media components plus 100 ng/mL human FGF-10 (Thermo Fisher Scientific, cat. 100-26), 500 nM SB-431542 (Selleckchem, cat. S1067), and gastrin (Tocris, cat. 3006).
[…]
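Note: spheroids exposed to compounds for 7 days.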
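Throughout, for viability, T/C: 100% = DMSO vehicle control viability.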

With `Cc1[nH]c2ccccc2c1CCNCc1ccc(/C=C/C(=O)NO)cc1` + Cc1[nH]c2ccc(F)cc2c1-c1nc2c3cccnc3c3ncccc3c2[nH]1 the IC50 (curve of first compound, second compound 0.0316 µM) was 59.6 nM, the IC50 (curve of first compound, second compound 0.1 µM) was 64.8 nM and the IC50 (curve of first compound, second compound 0.316 µM) was 49.1 nM. It also gave an IC50 (curve of first compound, second compound 1 µM) of 32.5 nM, an IC50 (curve of first compound, second compound 3.16 µM) of less than 0.999 nM and an IC50 (curve of first compound, second compound 10 µM) of less than 0.999 nM. The viability, T/C (second compound 0.0316 µM, first compound 0.000999 µM) was 109%, the viability, T/C (second compound 0.0316 µM, first compound 0.00316 µM) was 107% and the viability, T/C (second compound 0.0316 µM, first compound 0.00999 µM) was 94.6%. The viability, T/C (second compound 0.0316 µM, first compound 0.0316 µM) was 84.6%, the viability, T/C (second compound 0.0316 µM, first compound 0.0999 µM) was 22.5% and the viability, T/C (second compound 0.0316 µM, first compound 0.316 µM) was 0.66%. For the same compound, the viability, T/C (second compound 0.1 µM, first compound 0.000999 µM) was 90.7%, the viability, T/C (second compound 0.1 µM, first compound 0.00316 µM) was 98.2% and the viability, T/C (second compound 0.1 µM, first compound 0.00999 µM) was 99.5%. For the same compound, the viability, T/C (second compound 0.1 µM, first compound 0.0316 µM) was 91.7%, the viability, T/C (second compound 0.1 µM, first compound 0.0999 µM) was 24.8% and the viability, T/C (second compound 0.1 µM, first compound 0.316 µM) was 0.58%. The viability, T/C (second compound 0.316 µM, first compound 0.000999 µM) was 91.7%, the viability, T/C (second compound 0.316 µM, first compound 0.00316 µM) was 72.2% and the viability, T/C (second compound 0.316 µM, first compound 0.00999 µM) was 85.5%. The viability, T/C (second compound 0.316 µM, first compound 0.0316 µM) was 63.3%, the viability, T/C (second compound 0.316 µM, first compound 0.0999 µM) was 27% and the viability, T/C (second compound 0.316 µM, first compound 0.316 µM) was 0.34%. It also gave a viability, T/C (second compound 1 µM, first compound 0.000999 µM) of 66.8%, a viability, T/C (second compound 1 µM, first compound 0.00316 µM) of 55.9% and a viability, T/C (second compound 1 µM, first compound 0.00999 µM) of 63.1%. For the same compound, the viability, T/C (second compound 1 µM, first compound 0.0316 µM) was 50.3%, the viability, T/C (second compound 1 µM, first compound 0.0999 µM) was 20.4% and the viability, T/C (second compound 1 µM, first compound 0.316 µM) was 0.35%. For the same compound, the viability, T/C (second compound 3.16 µM, first compound 0.000999 µM) was 9.69%, the viability, T/C (second compound 3.16 µM, first compound 0.00316 µM) was 7.8% and the viability, T/C (second compound 3.16 µM, first compound 0.00999 µM) was 7.35%. The viability, T/C (second compound 3.16 µM, first compound 0.0316 µM) was 5.79%, the viability, T/C (second compound 3.16 µM, first compound 0.0999 µM) was 1.55% and the viability, T/C (second compound 3.16 µM, first compound 0.316 µM) was 0.52%. It also gave a viability, T/C (second compound 10 µM, first compound 0.000999 µM) of 43.6%, a viability, T/C (second compound 10 µM, first compound 0.00316 µM) of 46.2% and a viability, T/C (second compound 10 µM, first compound 0.00999 µM) of 41.6%. For the same compound, the viability, T/C (second compound 10 µM, first compound 0.0316 µM) was 46.7%, the viability, T/C (second compound 10 µM, first compound 0.0999 µM) was 13.9% and the viability, T/C (second compound 10 µM, first compound 0.316 µM) was 0.41%.

With `O=c1[nH]cc(F)c(=O)[nH]1` the viability, T/C (compound 0.0316 µM) was 82.5% and 74.1% and 82.2%, the viability, T/C (compound 0.1 µM) was 61.5% and 60.6% and 75.6% and the viability, T/C (compound 0.316 µM) was 61.1% and 61.8% and 73.7%. For the same compound, the viability, T/C (compound 1 µM) was 57.7% and 55.4% and 66.4%, the viability, T/C (compound 3.16 µM) was 51.6% and 51.2% and 63.5% and the viability, T/C (compound 10 µM) was 52.5% and 54.1% and 66.9%. For the same compound, the IC50 (curve of compound) was greater than 10000 nM.

`CC1COCCN1c1cc(-c2ccnn2C)c2ccnc(-c3ccn[nH]3)c2n1` (stereo not given) was tested, and the viability, T/C (compound 0.0316 µM) was 65.6% and 74.5% and 75.8%, the viability, T/C (compound 0.1 µM) was 35.5% and 31.4% and 31.2% and the viability, T/C (compound 0.316 µM) was 15.8% and 12.9% and 15.2%. For the same compound, the viability, T/C (compound 1 µM) was 8.71% and 4.99% and 7.86%, the viability, T/C (compound 3.16 µM) was 5% and 2.03% and the viability, T/C (compound 10 µM) was 4.63% and 1.67% and 5.37%. For the same compound, the IC50 (curve of compound) was 57.4 nM and 61 nM and 62 nM.

`Cn1ncnc1[C@H]1c2n[nH]c(=O)c3cc(F)cc(c23)N[C@@H]1c1ccc(F)cc1` was tested, and the viability, T/C (compound 0.000999 µM) was 108% and 102% and 105%, the viability, T/C (compound 0.00316 µM) was 94.8% and 103% and 86.1% and the viability, T/C (compound 0.00999 µM) was 95% and 95.7% and 88.2%. For the same compound, the viability, T/C (compound 0.0316 µM) was 86.3% and 102% and 97.5%, the viability, T/C (compound 0.0999 µM) was 88.8% and 91.6% and 81.5% and the viability, T/C (compound 0.316 µM) was 94.1% and 80.5% and 73.1%. The IC50 (curve of compound) was greater than 316 nM.

In the case of `COc1cc(C2c3cc4c(cc3C(OC3OC5COC(C)OC5C(O)C3O)C3COC(=O)C23)OCO4)cc(OC)c1O` (stereo not given), the viability, T/C (compound 0.0316 µM) is reported as 96.6% and 95.8% and 105%, the viability, T/C (compound 0.1 µM) is reported as 89.9% and 93.5% and 94.8% and the viability, T/C (compound 0.316 µM) is reported as 74.2% and 73.8% and 92.6%. The viability, T/C (compound 1 µM) was 47.9% and 42.6% and 70.5%, the viability, T/C (compound 3.16 µM) was 32.8% and 30.4% and 55.1% and the viability, T/C (compound 10 µM) was 23.5% and 21.9% and 44.2%. The IC50 (curve of compound) was 956 nM and 784 nM and 5260 nM.
